Source: patent US12281363B2, “Methods for detecting antiviral-drug resistant virus” (Secretary of State for Health and Social Care, priority 2018, dated 2025)
Where two headings read alike, the source gives them in different places.

Tested on: HSV-2
Assay: Plaque reduction assay, HSV-2 clinical isolates on Vero cells
Assay type: cell-based
Details: for IC50: Human alphaherpesvirus 2, Vero
Source text: Viral isolates were used to infect a sub-confluent monolayer of Vero cells at a concentration of 75 or 50 plaque forming units (PFU) per well for HSV-1 and HSV-2, respectively. […] CMC medium typically used to create a semisolid interface and prevents indiscrimate viral spreading. Other materials (e.g. agar) may also be used to create this interface.
Cells were fixed with 10% formalin and stained with crystal violet before enumeration of the plaques (microscopic observation or use of fluorescent antibodies for detection is also suitable). The data obtained from these experiments were then expressed as percent inhibition of viral infectivity relative to the no drug control.
Definitions of phenotypic drug susceptibility classification as sensitive or resistant were as follows: ACV, <3 μM or >40 μM; PCV, <10 μM or >40 μM; CDV, <24 μM or >30 μM; FOS, <250 μM or >400 μM; and ACV, <6.5 μM or >40 μM; PCV, <38 μM or >40 μM; FOS, <250 μM or >400 μM for HSV-1 and HSV-2, respectively. Any IC50 values falling in between these sensitive and resistant cut-offs were reported as intermediate resistance.
The phenotype (i.e. reactivity to a drug) of the virus was characterised by the plaque reduction assay as described above. The present inventors have characterised the resistance-causing phenotype of a large number of TK and DNA pol mutations.

In the case of `Nc1nc2c(ncn2COCCO)c(=O)[nH]1` [Aciclovir, acyclovir], the Level of resistance (HSV-2 DNA pol R628G (18820>G)) is reported as “weak/intermediate resistance”, the IC50 (isolate HPG001, HSV-2 TK A125T (373G>A), read-out: Drug susceptibility (IC50 value)) is reported as 1.53 µM and the IC50 (isolate HPG001, HSV-2 pol H714R (2141A>G), read-out: Drug susceptibility (IC50 value)) is reported as 1.53 µM. The IC50 (isolate HPG004, HSV-2 pol M494T (1481T>C), also pol S729N, read-out: Drug susceptibility (IC50 value)) was greater than 40 µM, the IC50 (isolate HPG007, HSV-2 pol R628G (1882C>G), read-out: Drug susceptibility (IC50 value)) was 28.6 µM and the IC50 (isolate HPG017, HSV-2 TK Q186H (558G>T), read-out: Drug susceptibility (IC50 value)) was 10.2 µM. The IC50 (isolate HPG022, HSV-2 TK E213D (639A>C), read-out: Drug susceptibility (IC50 value)) was 4.46 µM, the IC50 (isolate HPG022, HSV-2 pol D174Y (520G>T), read-out: Drug susceptibility (IC50 value)) was 4.46 µM and the IC50 (isolate HPG023, HSV-2 TK Q186H (558G>T), read-out: Drug susceptibility (IC50 value)) was 12.1 µM. The IC50 (isolate HPG024, HSV-2 TK E213D (639A>C), read-out: Drug susceptibility (IC50 value)) was 2.5 µM, the IC50 (isolate HPG028, HSV-2 TK 98stop or A94fs (276delG, 278delG, 279delG, or 280delG), read-out: Drug susceptibility (IC50 value)) was greater than 40 µM and the IC50 (isolate HPG028, HSV-2 pol E776Q (2326G>C), also TK deletion (G) nt 276-280, read-out: Drug susceptibility (IC50 value)) was greater than 40 µM. It also gave an IC50 (isolate HPG028, HSV-2 pol R775C, R775W (2323C>T; 2325C>G), also TK deletion (G) nt 276-280, read-out: Drug susceptibility (IC50 value)) greater than 40 µM, an IC50 (isolate HPG030, HSV-2 TK Q90stop (268C>T), read-out: Drug susceptibility (IC50 value)) greater than 40 µM and an IC50 (isolate HPG030, HSV-2 pol E761K (2281G>A), also TK Q90stop, read-out: Drug susceptibility (IC50 value)) greater than 40 µM. It also gave an IC50 (isolate HPG036, HSV-2 TK E84K (250G>A), read-out: Drug susceptibility (IC50 value)) greater than 40 µM, an IC50 (isolate HPG038, HSV-2 TK R34C (100C>T), read-out: Drug susceptibility (IC50 value)) of 2.04 µM and an IC50 (isolate HPG044, HSV-2 TK M86L (256A>C), read-out: Drug susceptibility (IC50 value)) greater than 40 µM. For the same compound, the IC50 (isolate HPG048, HSV-2 TK Q90stop (268C>T), read-out: Drug susceptibility (IC50 value)) was greater than 40 µM, the IC50 (isolate HPG048, HSV-2 pol E761K (2281G>A), also TK Q90stop, read-out: Drug susceptibility (IC50 value)) was greater than 40 µM and the IC50 (isolate HPG057, HSV-2 TK 98stop or A94fs (276delG, 278delG, 279delG, or 280delG), read-out: Drug susceptibility (IC50 value)) was greater than 40 µM. It also gave an IC50 (isolate HPG058, HSV-2 TK 183stop or P154fs (458delC, 459delC, 460delC, or 461delC), read-out: Drug susceptibility (IC50 value)) of 36.2 µM, an IC50 (read-out: Drug susceptibility (IC50 value), isolate HPG034, HSV-2 TK L313S (938A>C)) of 35.8 µM and an IC50 (read-out: Drug susceptibility (IC50 value), isolate HPG056, HSV-2 pol M447L (1339A>C)) of 1.56 µM. The IC50 (read-out: Drug susceptibility Aciclovir (ACV), isolate HPG001, HSV-2 TK A125T (373G>A)) was less than 6.5 µM, the IC50 (read-out: Drug susceptibility Aciclovir (ACV), isolate HPG001, HSV-2 pol H714R (2141A>G)) was less than 6.5 µM and the IC50 (read-out: Drug susceptibility Aciclovir (ACV), isolate HPG004, HSV-2 pol M494T (1481T>C), also pol S729N) was greater than 40 µM. For the same compound, the IC50 (read-out: Drug susceptibility Aciclovir (ACV), isolate HPG007, HSV-2 pol R628G (1882C>G)) was 6.5 to 40 µM, the IC50 (read-out: Drug susceptibility Aciclovir (ACV), isolate HPG017, HSV-2 TK Q186H (558G>T)) was 6.5 to 40 µM and the IC50 (read-out: Drug susceptibility Aciclovir (ACV), isolate HPG022, HSV-2 TK E213D (639A>C)) was less than 6.5 µM. It also gave an IC50 (read-out: Drug susceptibility Aciclovir (ACV), isolate HPG022, HSV-2 pol D174Y (520G>T)) of less than 6.5 µM, an IC50 (read-out: Drug susceptibility Aciclovir (ACV), isolate HPG023, HSV-2 TK Q186H (558G>T)) of 6.5 to 40 µM and an IC50 (read-out: Drug susceptibility Aciclovir (ACV), isolate HPG024, HSV-2 TK E213D (639A>C)) of less than 6.5 µM. It also gave an IC50 (read-out: Drug susceptibility Aciclovir (ACV), isolate HPG028, HSV-2 TK 98stop or A94fs (276delG, 278delG, 279delG, or 280delG)) greater than 40 µM, an IC50 (read-out: Drug susceptibility Aciclovir (ACV), isolate HPG028, HSV-2 pol E776Q (2326G>C), also TK deletion (G) nt 276-280) greater than 40 µM and an IC50 (read-out: Drug susceptibility Aciclovir (ACV), isolate HPG028, HSV-2 pol R775C, R775W (2323C>T; 2325C>G), also TK deletion (G) nt 276-280) greater than 40 µM. For the same compound, the IC50 (read-out: Drug susceptibility Aciclovir (ACV), isolate HPG030, HSV-2 TK Q90stop (268C>T)) was greater than 40 µM, the IC50 (read-out: Drug susceptibility Aciclovir (ACV), isolate HPG030, HSV-2 pol E761K (2281G>A), also TK Q90stop) was greater than 40 µM and the IC50 (read-out: Drug susceptibility Aciclovir (ACV), isolate HPG034, HSV-2 TK L313S (938A>C)) was 6.5 to 40 µM. It also gave an IC50 (read-out: Drug susceptibility Aciclovir (ACV), isolate HPG036, HSV-2 TK E84K (250G>A)) greater than 40 µM, an IC50 (read-out: Drug susceptibility Aciclovir (ACV), isolate HPG038, HSV-2 TK R34C (100C>T)) of less than 6.5 µM and an IC50 (read-out: Drug susceptibility Aciclovir (ACV), isolate HPG044, HSV-2 TK M86L (256A>C)) greater than 40 µM. For the same compound, the IC50 (read-out: Drug susceptibility Aciclovir (ACV), isolate HPG048, HSV-2 TK Q90stop (268C>T)) was greater than 40 µM, the IC50 (read-out: Drug susceptibility Aciclovir (ACV), isolate HPG048, HSV-2 pol E761K (2281G>A), also TK Q90stop) was greater than 40 µM and the IC50 (read-out: Drug susceptibility Aciclovir (ACV), isolate HPG056, HSV-2 pol M447L (1339A>C)) was less than 6.5 µM. It also gave an IC50 (read-out: Drug susceptibility Aciclovir (ACV), isolate HPG057, HSV-2 TK 98stop or A94fs (276delG, 278delG, 279delG, or 280delG)) greater than 40 µM and an IC50 (read-out: Drug susceptibility Aciclovir (ACV), isolate HPG058, HSV-2 TK 183stop or P154fs (458delC, 459delC, 460delC, or 461delC)) of 6.5 to 40 µM.
